From ChEMBL document CHEMBL1201862, “PubChem BioAssay data set” (2004) come the findings set out here.

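In this assay, cells in 96-well plates receive the compound at five concentrations for 48 hours. Endpoints are linearly interpolated between the surrounding concentrations. Abbreviation: GI50, concentration required for 50% inhibition of growth.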 Calls of active or inactive are those of the source. Rule as the data show it: active = GI50 up to about 1.1 µM and inactive = higher.

Among the test systems are SK-OV-3; NCI-H460; A498; SN12C; NCI-H522; HOP-92; A549; UACC-62; OVCAR-5; UO-31; HCT-15; MOLT-4; SK-MEL-28; SF-268; SK-MEL-2; HOP-62.
Holding throughout (test): NCI-60 cell line screen, 48 h

In the case of `CCN(CC)Cc1cc(Nc2c3ccccc3nc3c4ccccc4n(C)c23)ccc1O`, the GI50 is 16.7 µM (inactive) in the experiment on SK-OV-3; 7.91 µM (inactive) with NCI-H460; 13.7 µM (inactive) in the experiment with A498; 13.9 µM (inactive) in the experiment with SN12C; 2.58 µM (inactive) in the experiment on NCI-H522; 5.9 µM (inactive) in the experiment on HOP-92. Further, the GI50 in the experiment on A549 was 12.9 µM (inactive); in the experiment on UACC-62, 6.9 µM (inactive); with OVCAR-5, 10.1 µM (inactive); with UO-31, 9.95 µM (inactive); with HCT-15, 8.85 µM; in the experiment with MOLT-4, 2.77 µM (inactive). The GI50 was 4.43 µM (inactive) in the experiment with SK-MEL-28, 16.6 µM (inactive) in the experiment with SF-268, 20.7 µM (inactive) in the experiment on SK-MEL-2 and 12 µM (inactive) in the experiment with HOP-62.
On to `Sc1ncnc2c1ncn2C1CCCO1` (stereo not given), for which the GI50 in the experiment with SK-OV-3 was 35.8 µM (inactive); in the experiment on NCI-H460 it was > 100 µM (inactive); in the experiment on A498 it was > 100 µM (inactive); in the experiment with SN12C, > 100 µM (inactive); with NCI-H522, 64.6 µM (inactive); in the experiment with HOP-92 it was 39.3 µM (inactive). Also, the GI50 with A549 was > 100 µM (inactive); in the experiment with UACC-62, 76.2 µM (inactive); in the experiment with OVCAR-5, > 100 µM (inactive); in the experiment on UO-31, > 100 µM (inactive); with HCT-15 it was above 100 µM; in the experiment on MOLT-4 it was > 100 µM (inactive). Besides, the GI50 in the experiment on SK-MEL-28 is > 100 µM (inactive); in the experiment on SF-268 it was > 100 µM (inactive); in the experiment with SK-MEL-2 it was > 100 µM (inactive); in the experiment on HOP-62, 64.4 µM (inactive).
For the compound `NC(=O)COC(=O)c1c(Cl)nc2sccn12`, the GI50 with SK-OV-3 was > 100 µM (inactive); in the experiment with NCI-H460, > 61.2 µM (inactive); with A498, > 100 µM (inactive); with SN12C, > 100 µM (inactive); in the experiment on NCI-H522 it was > 100 µM (inactive); in the experiment on HOP-92 it was > 100 µM (inactive). In addition, the GI50 was > 100 µM (inactive) in the experiment with A549; > 100 µM (inactive) in the experiment with UACC-62; > 100 µM (inactive) in the experiment with OVCAR-5; > 100 µM (inactive) in the experiment on UO-31; above 40.3 µM with HCT-15; > 100 µM (inactive) in the experiment on MOLT-4. In addition, the GI50 in the experiment on SK-MEL-28, in the experiment with SF-268, in the experiment with SK-MEL-2 and in the experiment on HOP-62 was > 100 µM (inactive) in each case.
Regarding `O=C1NC2C(O)CCCCC2C12CCCCC2` (stereo not given), the GI50 in the experiment with SK-OV-3, with NCI-H460, in the experiment on A498, in the experiment with SN12C, with NCI-H522 and in the experiment with HOP-92 was > 100 µM (inactive) throughout. Moreover, the GI50 was > 100 µM (inactive) with A549; > 100 µM (inactive) with UACC-62; > 100 µM (inactive) in the experiment with OVCAR-5; > 100 µM (inactive) in the experiment on UO-31; above 100 µM with HCT-15; > 100 µM (inactive) in the experiment on MOLT-4. Besides, the GI50 with SK-MEL-28, in the experiment on SF-268, in the experiment on SK-MEL-2 and in the experiment on HOP-62 was > 100 µM (inactive) in each case.
With `CN1C[C@@H]2CC(=O)CC[C@@H]2C[C@H]1C#N`, the GI50 with SK-OV-3, with NCI-H460, in the experiment on A498, in the experiment with SN12C, in the experiment on NCI-H522 and in the experiment with HOP-92 was > 100 µM (inactive) each time. The GI50 is > 100 µM (inactive) in the experiment on A549; > 100 µM (inactive) in the experiment with UACC-62; > 100 µM (inactive) in the experiment on OVCAR-5; > 100 µM (inactive) in the experiment with UO-31; above 100 µM in the experiment on HCT-15; > 100 µM (inactive) with MOLT-4. For the same compound, the GI50 in the experiment on SF-268, in the experiment on SK-MEL-2 and with HOP-62 was > 100 µM (inactive) each time.
As to `C[C@]12CCC[C@H](O)[C@H]1C[C@H](CO)CC2`, the GI50 in the experiment on SK-OV-3, in the experiment with NCI-H460, in the experiment with A498, with SN12C, in the experiment on NCI-H522 and with HOP-92 was > 100 µM (inactive) each time. Besides, the GI50 is > 100 µM (inactive) in the experiment on A549; > 100 µM (inactive) in the experiment on UACC-62; > 100 µM (inactive) in the experiment on OVCAR-5; > 100 µM (inactive) with UO-31; above 100 µM in the experiment on HCT-15; > 100 µM (inactive) with MOLT-4. The GI50 with SK-MEL-28, in the experiment with SF-268, with SK-MEL-2 and in the experiment on HOP-62 was > 100 µM (inactive) throughout.
On to `CC1(C)SCc2nc3ncccc3n21`, for which the GI50 in the experiment with SK-OV-3, in the experiment on NCI-H460, in the experiment with A498, in the experiment on SN12C, with NCI-H522 and with HOP-92 was > 100 µM (inactive) throughout. The GI50 in the experiment on A549 was > 100 µM (inactive); in the experiment on UACC-62, > 100 µM (inactive); with OVCAR-5, > 100 µM (inactive); in the experiment on UO-31, > 100 µM (inactive); in the experiment with HCT-15, above 100 µM; in the experiment on MOLT-4 it was > 100 µM (inactive). In addition, the GI50 in the experiment with SK-MEL-28, with SF-268, in the experiment on SK-MEL-2 and with HOP-62 was > 100 µM (inactive) throughout.
On to `COC(=O)C(C(=O)C(=O)Nc1ccc(Br)cc1)c1nc2ccc(Cl)cc2nc1O` (stereo not given), for which the GI50 with SK-OV-3 is > 100 µM (inactive); in the experiment with NCI-H460, > 57.1 µM (inactive); in the experiment on A498, > 100 µM (inactive); with SN12C it was > 100 µM (inactive); in the experiment with NCI-H522, > 100 µM (inactive); with HOP-92, > 100 µM (inactive). Also, the GI50 in the experiment with A549 was > 100 µM (inactive); in the experiment with UACC-62, > 100 µM (inactive); in the experiment on OVCAR-5, > 100 µM (inactive); in the experiment with UO-31, > 82.4 µM (inactive); with HCT-15, above 41.2 µM; in the experiment with MOLT-4 it was 80.7 µM (inactive). For the same compound, the GI50 in the experiment on SK-MEL-28, with SF-268, in the experiment with SK-MEL-2 and in the experiment with HOP-62 was > 100 µM (inactive) each time.
Turning to `CC(C)(Oc1ccc(C(=O)c2ccc(Cl)cc2)cc1Cl)C(=O)N1CCN(c2ccccc2)CC1`, the GI50 with SK-OV-3 is > 100 µM (inactive); in the experiment with NCI-H460, > 100 µM (inactive); with A498 it was > 100 µM (inactive); in the experiment on NCI-H522, 59 µM (inactive); in the experiment with HOP-92, > 100 µM (inactive); in the experiment with A549, 58.5 µM (inactive). Besides, the GI50 in the experiment on UACC-62 is > 100 µM (inactive); in the experiment on OVCAR-5, > 100 µM (inactive); in the experiment with UO-31, 46.9 µM (inactive); in the experiment on HCT-15, above 100 µM; with MOLT-4, > 100 µM (inactive); in the experiment on SK-MEL-28 it was > 100 µM (inactive). The GI50 in the experiment on SF-268, in the experiment with SK-MEL-2 and in the experiment on HOP-62 was > 100 µM (inactive) throughout.
`O=C(O)/C(Cl)=C(\Cl)C(=O)Nc1ccc(Cl)c(Cl)c1Cl`: the GI50 with SK-OV-3 was 19.7 µM (inactive); in the experiment on NCI-H460, 21.8 µM (inactive); with A498, 28.8 µM (inactive); in the experiment on SN12C, 20.9 µM (inactive); in the experiment on NCI-H522 it was 10.9 µM (inactive); in the experiment on HOP-92, 17.2 µM (inactive). Also, the GI50 in the experiment on A549 is 18.5 µM (inactive); with UACC-62, 13.3 µM (inactive); in the experiment on OVCAR-5, 18.2 µM (inactive); in the experiment on UO-31, 16.3 µM (inactive); in the experiment with HCT-15, 19.4 µM; in the experiment on MOLT-4, 23.8 µM (inactive). The GI50 with SK-MEL-28 is 27.9 µM (inactive); with SF-268 it was 25 µM (inactive); with SK-MEL-2, 18.2 µM (inactive); with HOP-62 it was 29.5 µM (inactive).
For `CCOC(OCC)C(CC)[Se]c1ccccc1` (stereo not given), the GI50 in the experiment with SK-OV-3 is > 100 µM (inactive); in the experiment with NCI-H460, 45.7 µM (inactive); with A498, > 100 µM (inactive); in the experiment on SN12C, 41 µM (inactive); in the experiment with NCI-H522, 15.6 µM (inactive); with HOP-92, 28.6 µM (inactive). Also, the GI50 is > 100 µM (inactive) with A549; > 100 µM (inactive) in the experiment with UACC-62; > 100 µM (inactive) with OVCAR-5; > 100 µM (inactive) in the experiment with UO-31; 15.5 µM in the experiment on HCT-15; 37.2 µM (inactive) in the experiment on MOLT-4. In addition, the GI50 in the experiment on SK-MEL-28 is > 100 µM (inactive); in the experiment with SF-268, 72.6 µM (inactive); in the experiment with SK-MEL-2, > 100 µM (inactive); in the experiment with HOP-62 it was > 100 µM (inactive).
For `CC(C)c1cccc(C(C)C)c1NC(=O)/C(Cc1nc2ccc(Cl)cc2nc1O)=N\NC(=O)C[N+](C)(C)C`, the GI50 with SK-OV-3 was > 100 µM (inactive); in the experiment on NCI-H460 it was > 100 µM (inactive); in the experiment with A498, > 100 µM (inactive); with SN12C, > 100 µM (inactive); in the experiment with NCI-H522 it was > 100 µM (inactive); with HOP-92 it was 85.5 µM (inactive). Further, the GI50 was > 100 µM (inactive) in the experiment with A549; > 100 µM (inactive) in the experiment on UACC-62; > 100 µM (inactive) in the experiment on OVCAR-5; 76.7 µM (inactive) with UO-31; > 100 µM (inactive) in the experiment on MOLT-4; > 100 µM (inactive) with SK-MEL-28. For the same compound, the GI50 in the experiment on SF-268, with SK-MEL-2 and with HOP-62 was > 100 µM (inactive) each time.
On to `COc1cc(Br)c(/C=N\c2cccc3ccc(OS(=O)(=O)c4cccc([N+](=O)[O-])c4)cc23)cc1OC`, for which the GI50 with SK-OV-3 is > 100 µM (inactive); in the experiment with NCI-H460, 54.8 µM (inactive); in the experiment on A498 it was 66.5 µM (inactive); in the experiment with SN12C it was 33.9 µM (inactive); in the experiment on NCI-H522, 22.1 µM (inactive); in the experiment on HOP-92, 2.44 µM (inactive). In addition, the GI50 in the experiment on A549 is 52.6 µM (inactive); in the experiment with UACC-62 it was 23.1 µM (inactive); in the experiment with OVCAR-5 it was > 100 µM (inactive); in the experiment with UO-31, 20.1 µM (inactive); in the experiment on HCT-15, 24.5 µM; with MOLT-4, 8.18 µM (inactive). Also, the GI50 was 6.52 µM (inactive) with SK-MEL-28, 19.4 µM (inactive) in the experiment with SF-268, 39.4 µM (inactive) with SK-MEL-2 and 34.4 µM (inactive) with HOP-62.
